Test [1] addresses T1, β5i subunit of the 20S proteasome (Homo sapiens, UniProt P20618+P28062).
T1 construct: The proteasome tested in the present disclosure was derived from Raji cells; endogenous in cells; host or cells: Raji cells
Put plainly: Proteasome inhibitory activity, β5i subunit (Raji cells treated with compound, lysed, Ac-ANW-AMC substrate). The class given is cell-based. As to conditions: proteasome from Raji cells incubated with compound 4 h. An excerpt: In the present disclosure, the fluorescent peptide substrate Ac-Ala-Asn-Trp-AMC (abbreviated as Ac-ANW-AMC) and the […] kit containing a fluorescent peptide substrate Suc-Leu-Leu-Val-Tyr-AMC (abbreviated as Suc-LLVY-AMC) (Promega, Item No. G8660) were used to detect the activities of the β5i subunit and β5c subunit of the 20S proteasome, respectively.
The proteasome tested in the present disclosure was derived from Raji cells, the fluorescent substrate Ac-ANW-AMC was purchased from Roche company, and other reagents were purchased from Sigma company. The experimental system was divided into two parts of cell lysis system and enzyme reaction system. […] The starting concentration of the compound (inhibitor) was 1 μM. It was diluted in a 3-fold serial dilution to a total of 8 concentrations, that is, the administration concentration can be 1 μM, 0.333 μM, 0.111 μM . . . , respectively, and the specific experimental process was described below.
Raji cells (1×10^6 cells) cryopreserved in liquid nitrogen were thawed rapidly in a water bath at 37° C. The cell pellet was transferred to a 15 mL centrifuge tube, added with 9 mL of fresh medium (Gibco RPMI1640 added with 10% fetal bovine serum and 1% double antibiotics), centrifuged at 120 g for 5 min, inoculated to 25 mL cell culture flasks, and passaged once every 2-3 days.
The compound was weighed and dissolved in DMSO to a concentration of 10 mM. The compound was then sequentially diluted to concentrations of 200 μM, 66.67 μM, 22.22 μM, 7.41 μM, 2.47 μM, 0.82 μM, 0.27 μM, and 0.091 μM with fresh medium. Raji cells in a good growth status were inoculated into a 48-well cell culture plate at 7×10^5 cells/mL.
Raji cells in a good growth status were taken and counted. They were then inoculated to a 48-well cell culture plate at 7×10^5 cells/mL. Each 5 μL of the various concentrations of diluted compounds above were taken and added to the culture plate inoculated with cells, and the lowest concentration of compound was 0 μM. The drug bortezomib (Velcade) and ONX-0914 were used as the positive control compounds. All cells were incubated at 37° C. for 4 h.
The compound-treated cells were sequentially transferred into 1.5 mL centrifuge tubes, centrifuged at 10000 rpm for 2 min, and the supernatants were removed. The cell pellet was resuspended in 1 mL of PBS, centrifuged at 10000 rpm for 2 min, and the supernatant was removed. Cells were resuspended by adding 100 μL of cell lysate (50 mM Tris of pH 7.5, 150 mM NaCl, 5 mM MgCl2, 5 mM ATP, 1 mM DTT, 0.01% NP-40, 1 mM Digitonin, and Cocktail), placed in an ice bath for 30 min, and centrifuged at 13000 rpm for 10 min.
2 mg of fluorescent peptide substrate AC-ANW-AMC was dissolved in 424.7 μL of DMSO to obtain an 8 mM stock solution, and stored at −20° C. The stock solution was diluted 100-fold to a final concentration of […] for use in the reaction system. The fluorescent peptide substrate Suc-LLVY-AMC was prepared according to the instructions of the Promega kit.
Each 20 μL of the prepared proteasome solution above was added to a 96-well white luciferase microplate and added with 25 μL of AC-ANW-AM substrate buffer solution (50 mM Tris of pH 7.5, 150 mM NaCl, 5 mM MgCl2, 5 mM ATP, 80 uM Ac-ANW-AMC and 1 mM DTT) and 25 μL of Suc-LLVY-AMC substrate buffer solution for 10 min of reaction at 37° C. in the dark. Fluorescence values were read at 345 nm/445 nm by using a fluorence microplate reader.
The data were exported and the inhibition rate in percentage was calculated according to the following formula: Inhibition rate=(maximum signal value-compound signal value)/(maximum signal value−blank signal value)×100%.
Where the maximum signal was obtained from cell lysates treated with DMSO only, and the blank signal was obtained from wells containing only lysates.

A further test concerns MM.1S cell strain. Put plainly: Inhibitory activity of cell strain (CellTiter-Glo). The class given is cell-based. As to conditions: Homo sapiens, MM1.S, 72 h incubation. The protocol:
The cells used in this experiment were MM.1S cell strain and the detection reagent was CellTiter-Glo (Promega). […] The experimental process was described below. MM.1S cells in the logarithmic growth phase and in a good status were digested into individual cells by trypsin, centrifuged to remove the supernatant, and counted. Cells were diluted and 100 μL of cell suspension per well was added to a 96-well enzyme-coated plate at 1×10^5 cells per well. The wells containing only RPMI1640 complete medium were set as blank control. The 96-well plate was transferred to a 37° C. incubator containing 5% CO2 for 24 h of incubation.
The compound was accurately weighed and dissolved in DMSO to a concentration of 10^−2 M. 10 μL of compound was pipetted to 190 μL of DMSO to given a 5×10^−4 M compound. 6 μL of the compound (5×10^−5 M) was pipetted to a new 96-well microplate containing 194 μL of RPMI1640 complete medium and diluted in a 3-fold gradient dilution. 50 μL of the diluted compound was transferred to the 96-well microplate containing the cells such that the final compound concentrations were 5×10^−7 M, 1.67×10^−7 M, 5.55×10^−8 M, 1.85×10^−8 M, 6.17×10^−9 M, 2.06×10^−9 M, 6.86×10^−10 M, 2.29×10^−10 M, and 0 M. For the 0 M, no compound was added, and the same concentration of DMSO was added. The marketed drug bortezomib was used as a positive control. The 96-well microplate added with compounds was placed in the 37° C. incubator for 72 h of incubation.
At the predetermined detection time, the 96-well microplate to be detected was placed at room temperature, added with 40 μL of detection reagent (CellTiter-Glo) per well, and covered with a dark lid or piece of aluminium foil. The contents were mixed on an orbit oscillator for 10 min for complete cell lysis, with a vibration speed of 150 rpm. Luminescence values were detected on a multifunctional microplate reader (BioTek Synergy H1 Hybrid Multi-Mode Reade).
The data were exported and the percentage inhibition was calculated according to the following formula: Inhibition rate=(maximum signal value-compound signal value)/(maximum signal value−blank signal value)×100%, • wherein maximum signal was obtained from alone DMSO-treated cells, and blank signal was obtained from wells containing only culture medium.

Structures are written as SMILES.

In the case of `O=C(/C=C/C(=O)N[C@@H](Cc1ccccc1)B(O)O)Nc1ccccc1` [Example 8], the IC50 (in test [1]; in the test with MM.1S cell strain) was 50 to 200 nM throughout.

On to `Cc1ccc(CNC(=O)/C=C/C(=O)N[C@@H](CC(C)C)B(O)O)cc1` [Example 11], for which, in the test on MM.1S cell strain, the IC50 is 200 to 500 nM.

As to `O=C(/C=C/C(=O)N[C@@H](Cc1ccccc1)B(O)O)NCc1cc(Cl)ccc1Cl` [Example 12], the IC50 with MM.1S cell strain fell in the range of 200 to 500 nM.

For the compound `[2H]/C(C(=O)NCc1ccccc1)=C(/[2H])C(=O)N[C@@H](Cc1ccccc1)B(O)O` [Example 17, (R,E)-(1-(4-(benzylamino)-4-oxobut-2-enamido-2,3-D2)-2-phenylethyl)boric acid], the IC50 in the test on MM.1S cell strain fell in the range of 50 to 200 nM.

As for `COc1cccc(CCNC(=O)C(C)C(=O)N[C@@H](Cc2ccccc2)B(O)O)c1` (stereo partly drawn) [Example 61, ((1R)-1-(3-((3-methoxyphenylethyl)amino)-2-methyl-3-oxopropionamido)-2-phenylethyl)boric acid], in the test on MM.1S cell strain, the half-maximal inhibitory concentration (IC50) fell in the range of 50 to 200 nM.

In the case of `COc1cccc(NC(=O)C(C)C(=O)N[C@@H](Cc2ccccc2)B(O)O)c1` (stereo partly drawn) [Example 67, ((1R)-1-(3-((3-methoxyphenyl)amino)-2-methyl-3-oxopropionamido)-2-phenylethyl)boric acid], in the test with MM.1S cell strain, the IC50 is 50 to 200 nM.

As to `COc1ccc(NC(=O)C(C)C(=O)N[C@@H](Cc2ccc(C)cc2)B(O)O)cc1` (stereo partly drawn) [Example 70, ((1R)-1-(3-((4-methoxyphenyl)amino)-2-methyl-3-oxopropionamido)-2-(p-tolyl)ethyl)boric acid], the IC50 in the test with MM.1S cell strain fell in the range of 50 to 200 nM.

For the compound `COc1cccc(CNC(=O)C(Cc2ccccc2)C(=O)N[C@@H](Cc2coc3ccccc23)B(O)O)c1` (stereo partly drawn) [Example 71, ((1R)-2-(benzofuran-3-yl)-1-(2-benzyl-3-((3-methoxybenzyl)amino)-3-oxopropionamido)ethyl)boric acid], in the test on MM.1S cell strain, the IC50 was at most 50 nM.

`COc1cccc(CNC(=O)C(Cc2ccccc2)C(=O)N[C@@H](Cc2ccc(-c3ccccc3)cc2)B(O)O)c1` (stereo partly drawn) [Example 72, ((1R)-2-([1,1′-biphenyl]-4-yl)-1-(2-benzyl-3-((3-methoxybenzyl)amino)-3-oxopropionamido)ethyl)boric acid]: in the test on MM.1S cell strain, the IC50 is at most 50 nM.

For `CC(C(=O)NCc1cccc(OC(F)(F)F)c1)C(=O)N[C@@H](Cc1ccc(-c2ccccc2)cc1)B(O)O` (stereo partly drawn) [Example 74, ((1R)-2-([1,1′-biphenyl]-4-yl)-1-(2-methyl-3-oxo-3-((3-(trifluoromethoxy)benzyl)amino)propanamido)ethyl)boronic acid], the IC50 with MM.1S cell strain is at most 50 nM.

`COc1cccc(CNC(=O)C(C(=O)N[C@@H](Cc2ccc(-c3ccccc3)cc2)B(O)O)C(C)C)c1` (stereo partly drawn) [Example 76, ((1R)-2-([1,1′-biphenyl]-4-yl)-1-(2-((3-methoxybenzyl)carbamoyl)-3-methylbutanamido)ethyl)boric acid]: the half-inhibitory concentration (IC50) with MM.1S cell strain is at most 50 nM.

With `CC(C(=O)NCc1cccc(C(F)(F)F)c1)C(=O)N[C@@H](Cc1ccc(-c2ccccc2)cc1)B(O)O` (stereo partly drawn) [Example 78, ((1R)-2-([1,1′-biphenyl]-4-yl)-1-(2-methyl-3-oxo-3-((3-(trifluoromethyl)benzyl)amino)propionamido)ethyl)boric acid], the IC50 in the test with MM.1S cell strain was at most 50 nM.

Consider `Cc1ccc(C[C@H](NC(=O)C(C)C(=O)NCc2cccc(OC(F)(F)F)c2)B(O)O)cc1` (stereo partly drawn) [Example 86, ((1R)-1-(2-methyl-3-oxo-3-((3-(trifluoromethoxy)benzyl)amino)propionamido)-2-(p-tolyl)ethyl)boric acid], for which the IC50 in the test on MM.1S cell strain is at most 50 nM.

On to `O=C(NCc1cccc(OC(F)(F)F)c1)C(F)C(=O)N[C@@H](Cc1ccccc1)B(O)O` (stereo partly drawn) [Example 95, ((1R)-1-(2-fluoro-3-oxo-3-((3-(trifluoromethoxy)benzyl)amino)propionamido)-2-phenylethyl)boric acid], for which the IC50 in the test with MM.1S cell strain is at most 50 nM.

Take `Cc1ccc(C[C@H](NC(=O)C(F)C(=O)NCc2cccc(OC(F)(F)F)c2)B(O)O)cc1` (stereo partly drawn) [Example 96, ((1R)-1-(2-fluoro-3-oxo-3-((3-(trifluoromethoxy)benzyl)amino)propionamido)-2-(p-tolyl)ethyl)boric acid]: the IC50 in the test with MM.1S cell strain was at most 50 nM.

Consider `O=C(NCc1cccc(OC(F)(F)F)c1)C(F)C(=O)N[C@@H](Cc1coc2ccccc12)B(O)O` (stereo partly drawn) [Example 97, ((1R)-2-(Benzofuran-3-yl)-1-(2-fluoro-3-oxo-3-((3-(trifluoromethoxy)benzyl)amino)propionamido)ethyl)boric acid], for which the 50% inhibitory concentration (IC50) in the test on MM.1S cell strain was at most 50 nM.

Consider `Cc1ccc(C[C@H](NC(=O)C(F)(F)C(=O)NCc2cccc(OC(F)(F)F)c2)B(O)O)cc1` [Example 98, (R)-(1-(2,2-difluoro-3-oxo-3-((3-(trifluoromethoxy)benzyl)amino)propionamido)-2-(p-tolyl)ethyl)boric acid], for which the IC50 with MM.1S cell strain is 200 to 500 nM.

With `COc1cccc(CCNC(=O)C(F)C(=O)N[C@@H](Cc2coc3ccccc23)B(O)O)c1` (stereo partly drawn) [Example 101, ((1R)-2-(Benzofuran-3-yl)-1-(2-fluoro-3-((3-methoxyphenylethyl)amino)-3-oxopropionamido)ethyl)boric acid], the IC50 in the test on MM.1S cell strain was at most 50 nM.

Regarding `COc1cccc(CNC(=O)C(F)C(=O)N[C@@H](Cc2ccccc2)B(O)O)c1` (stereo partly drawn) [Example 102, ((1R)-1-(2-fluoro-3-((3-methoxybenzyl)amino)-3-oxopropionamido)-2-phenylethyl)boric acid], in the test with MM.1S cell strain, the IC50 was at most 50 nM.

Take `COc1cccc(CNC(=O)C(F)C(=O)N[C@@H](Cc2ccc(C)cc2)B(O)O)c1` (stereo partly drawn) [Example 103, ((1R)-1-(2-fluoro-3-((3-methoxybenzyl)amino)-3-oxopropionamido)-2-(p-tolyl)ethyl)boric acid]: in the test with MM.1S cell strain, the IC50 is at most 50 nM.

In the case of `COc1cccc(CNC(=O)C(F)C(=O)N[C@@H](Cc2coc3ccccc23)B(O)O)c1` (stereo partly drawn) [Example 104, ((1R)-2-(benzofuran-3-yl)-1-(2-fluoro-3-((3-methoxybenzyl)amino)-3-oxopropionamido)ethyl)boric acid], the IC50 in the test on MM.1S cell strain was at most 50 nM.

The IC50 is the concentration that gives 50% inhibition.

The record behind these values is US20250346613A1, “BORIC ACID PROTEASOME INHIBITOR AND USE THEREOF” (ARTIVILA BIOPHARMA, priority 2022, published 2025).
